Results as given in patent publication US6586427B2, “Treatments for nervous disorders” (Pharmacia & Upjohn Company, priority 1998, dated 2003).

How the values were obtained:
[1] = test system: muscarinic cholinergic receptors; assay: interaction with muscarinic cholinergic receptors; format: binding
I-adrenerigic receptors = assay: interaction with I-adrenergic receptors; format: binding
[2] = in vivo; cited from earlier work

For CCOc1ccccc1OC(c1ccccc1)C1CNCCO1 (stereo not shown) [Reboxetine], which “interaction with muscarinic cholinergic receptors” value [1] is on record?
The value was “without showing any appreciable interaction”.

And the “serotonin uptake inhibitory activity” value (serotonin uptake)?
Its value is “only marginal”.

And the “norepinephrine uptake inhibitory activity” value (norepinephrine uptake)?
The value was “highly selective norepinephrine uptake inhibitor”.

And the “interaction with I-adrenerigic receptors” value (I-adrenerigic receptors)?
Its value is “without showing any appreciable interaction”.

What about the “dopamine uptake inhibitory activity” value (dopamine uptake) of the same compound?
The value was “no dopamine uptake inhibitory activity”.

And the “monoamine oxidase (MAO) inhibitory activity” value (monoamine oxidase (MAO))?
Its value is “devoid of monoamine oxidase (MAO) inhibitory activity”.

What about the “effect in the 8-OH-DPAT hypothermia test” value [2] of the same compound?
The value was “ineffective”.
